Source: publication PMC12663734, “Sulfonamine-containing aurone derivatives act as inhibitors of intercellular movement of potato virus Y” (iScience, 2025)
Converted amounts (≈) assume the structure as drawn. One block for each compound: values may come before it.

Assays:
[1] = tested on: PVY; test: Anti-PVY curative activity, half-leaf method; conditions: Potato virus Y, in Chenopodium amaranticolor, 120 h, read-out: Curative effect (%)
Protocol: (§1) Owing to its non-host resistance to PVY, Chenopodium amaranticolor develops a hypersensitive response (HR) within 48–72 hours post-inoculation, producing sharply delimited chlorotic or necrotic local lesions on the inoculated leaves. The number of lesions correlates linearly and positively with virus titre, thereby serving as a quantitative indicator of viral virulence and of the inactivating efficacy of test compounds. The PVY viral extract was rubbed onto the surface of Nicotiana tabacum K326 leaves. After the characteristic symptoms of leaf wrinkling and inward curling appeared, the leaves were harvested and stored at -80°C, then purified according to previously reported methods.[50]^,[51]^,[52] Host leaves were ground to a fine powder in liquid nitrogen, followed by homogenization on ice in 0.5 M phosphate buffer. An equal volume of chloroform:n-butanol (1:1, v/v) corresponding to 10% of the total buffer volume was added, and the mixture was further homogenized on ice. After centrifugation at 10,000g for 20 minutes (4°C), the supernatant was collected as the crude PVY extract. Using 4–5-leaf-stage Chenopodium amaranticolor maintained under optimal growth conditions, a bioassay was conducted with two plants per treatment to systematically evaluate the curative, protective, and inactivating efficacy of the target compound against PVY.[53] […] Each compound was evaluated in three replicates, and the average value was calculated.
Chenopodium amaranticolor was selected as the dead spot host. Excess leaves were first trimmed off, and a uniform layer of carborundum was applied to the leaf surface. The leaves were then inoculated by rubbing with a 1200-fold diluted virus solution. After more than an hour, the carborundum on the leaf surface was washed off with running water, and a 500 μg/mL drug solution was prepared. […] The treated plants were cultivated in a greenhouse for observation, and the number of dead spots on the leaves was counted after approximately 5 days.

[2] = tested on: PVY; test: Anti-PVY protective activity, half-leaf method; conditions: Potato virus Y, in Chenopodium amaranticolor, 120 h, read-out: Protective effect (%)
Protocol: as §1
In contrast to the antiviral therapeutic activity, the leaves were first treated with the drug solution. A 500 μg/mL drug solution was applied to the right side of the leaves, with the left side serving as a control and treated with a 1% Tween 80 solution. After the leaves had dried under natural conditions, they were placed in a greenhouse for 24 hours before inoculation by rubbing with carborundum, following the same procedures as those for curative activity. After treatment, the plants were maintained in a greenhouse, and the number of local lesions on the inoculated leaves was recorded approximately 5 days.

[3] = tested on: PVY; test: Anti-PVY inactivating activity, half-leaf method; conditions: Potato virus Y, in Chenopodium amaranticolor; for pest or weed control at 500 µg/mL: 120 h; for EC50: read-out: Inactivating effect EC50
Protocol: as §1
Two different dilutions of the virus solution (600-fold and 1200-fold) were prepared, along with a 1000 μg/mL drug solution. The drug solution was mixed with the 600-fold diluted virus solution on ice and incubated for 30 minutes. During the incubation period, the left side of the leaves was treated with a 1200-fold diluted virus solution. After the incubation was completed, the mixed system of drug and virus is inoculated on the right side of the leaf. After waiting for the infection to be completed, the carborundum on the leaf surface was washed off with running water, and the plants were then cultivated in a greenhouse. The number of dead spots on the leaves was counted after approximately 5 days.

[4] = read-out: Inactivating effect (%), 500 μg/mL, host Chenopodium amaranticolor, average of three replicates

SMILES: COc1ccc(/C=C2\Oc3cc(OCC(=O)NS(=O)(=O)c4ccccc4)ccc3C2=O)cc1 [D2]
- pest or weed control at 500 µg/mL [1]: 41.4 ± 2.9%
- pest or weed control at 500 µg/mL [2]: 36.9 ± 2.7%
- pest or weed control at 500 µg/mL [3, 4]: 60 to 80%

SMILES: COc1ccc(/C=C2\Oc3cc(OCC(=O)NS(=O)(=O)c4ccccc4)ccc3C2=O)cc1OC [D23]
- pest or weed control at 500 µg/mL [1]: 35.3 ± 1.5%
- pest or weed control at 500 µg/mL [2]: 33.4 ± 3.9%
- pest or weed control at 500 µg/mL [3, 4]: 45.4 ± 1.1%

SMILES: COc1ccccc1/C=C1\Oc2cc(OCC(=O)NS(=O)(=O)c3cccc(C(F)(F)F)c3)ccc2C1=O [D35]
- pest or weed control at 500 µg/mL [1]: 37.6 ± 1.8%
- pest or weed control at 500 µg/mL [2]: 39.9 ± 2.8%
- pest or weed control at 500 µg/mL [3, 4]: 46.6 ± 2%

SMILES: COc1ccccc1/C=C1\Oc2cc(OCC(=O)NS(=O)(=O)c3ccc(Cl)cc3)ccc2C1=O [D3]
- pest or weed control at 500 µg/mL [1]: 40.1 ± 3.8%
- pest or weed control at 500 µg/mL [2]: 36.9 ± 2.9%
- pest or weed control at 500 µg/mL [3, 4]: 60 to 80%

SMILES: COc1cc(/C=C2\Oc3cc(OCC(=O)NS(=O)(=O)c4ccc(F)cc4)ccc3C2=O)cc(OC)c1 [D28]
- pest or weed control at 500 µg/mL [1]: 39.9 ± 2.9%
- pest or weed control at 500 µg/mL [2]: 32.5 ± 4.4%
- pest or weed control at 500 µg/mL [3, 4]: 56.4 ± 4.7%

SMILES: COc1cccc(/C=C2\Oc3cc(OCC(=O)NS(=O)(=O)c4ccccc4)ccc3C2=O)c1OC [D20]
- pest or weed control at 500 µg/mL [1]: 34.9 ± 4.9%
- pest or weed control at 500 µg/mL [2]: 31.3 ± 3.8%
- pest or weed control at 500 µg/mL [3, 4]: 64.7 ± 3.4%

SMILES: COc1ccc(/C=C2\Oc3cc(OCC(=O)NS(=O)(=O)c4ccc(Br)cc4)ccc3C2=O)c(OC)c1 [D14]
- pest or weed control at 500 µg/mL [1]: 29.8 ± 4.8%
- pest or weed control at 500 µg/mL [2]: 37.9 ± 4.4%
- pest or weed control at 500 µg/mL [3, 4]: 49.2 ± 4.2%

SMILES: COc1ccc(/C=C2\Oc3cc(OCC(=O)NS(=O)(=O)c4ccc(C(F)(F)F)cc4)ccc3C2=O)c(OC)c1 [D38]
- pest or weed control at 500 µg/mL [1]: 36.7 ± 3.5%
- pest or weed control at 500 µg/mL [2]: 28 ± 4%
- pest or weed control at 500 µg/mL [3, 4]: 33.3 ± 3.1%

- EC50 [3]: 147 ± 11 µg/mL (≈ 297 µM)
SMILES: COc1cc(/C=C2\Oc3cc(OCC(=O)NS(=O)(=O)c4ccccc4)ccc3C2=O)cc(OC)c1 [D24]
- pest or weed control at 500 µg/mL [1]: 50.1 ± 1.8%
- pest or weed control at 500 µg/mL [2]: 31 ± 3%
- pest or weed control at 500 µg/mL [3, 4]: 60 to 80%

SMILES: COc1cccc(/C=C2\Oc3cc(OCC(=O)NS(=O)(=O)c4ccc(F)cc4)ccc3C2=O)c1OC [D27]
- pest or weed control at 500 µg/mL [1]: 45.1 ± 3.7%
- pest or weed control at 500 µg/mL [2]: 33.9 ± 2.3%
- pest or weed control at 500 µg/mL [3, 4]: 60 to 80%

SMILES: COc1cc(/C=C2\Oc3cc(OCC(=O)NS(=O)(=O)c4ccc(Cl)cc4)ccc3C2=O)cc(OC)c1 [D19]
- pest or weed control at 500 µg/mL [1]: 36.4 ± 5.6%
- pest or weed control at 500 µg/mL [2]: 35.7 ± 3.8%
- pest or weed control at 500 µg/mL [3, 4]: 46 ± 3%

SMILES: COc1ccc(/C=C2\Oc3cc(OCC(=O)NS(=O)(=O)c4cccc(C(F)(F)F)c4)ccc3C2=O)cc1 [D36]
- pest or weed control at 500 µg/mL [1]: 36.8 ± 2.2%
- pest or weed control at 500 µg/mL [2]: 33.9 ± 4.1%
- pest or weed control at 500 µg/mL [3, 4]: 55.1 ± 2.8%

SMILES: COc1cc(OC)c(/C=C2\Oc3cc(OCC(=O)NS(=O)(=O)c4ccc(Cl)cc4)ccc3C2=O)c(OC)c1 [D32]
- pest or weed control at 500 µg/mL [1]: 43.4 ± 2.3%
- pest or weed control at 500 µg/mL [2]: 33.3 ± 2.6%
- pest or weed control at 500 µg/mL [3, 4]: 53.8 ± 3%

- EC50 [3]: 142 ± 15.2 µg/mL (≈ 267 µM)
SMILES: COc1cccc(/C=C2\Oc3cc(OCC(=O)NS(=O)(=O)c4ccc(Cl)cc4)ccc3C2=O)c1OC [D17]
- pest or weed control at 500 µg/mL [1]: 46.2 ± 1.4%
- pest or weed control at 500 µg/mL [2]: 40.7 ± 2.3%
- pest or weed control at 500 µg/mL [3, 4]: 60 to 80%

SMILES: COc1cc(OC)c(/C=C2\Oc3cc(OCC(=O)NS(=O)(=O)c4ccccc4)ccc3C2=O)c(OC)c1 [D31]
- pest or weed control at 500 µg/mL [1]: 42.9 ± 2.4%
- pest or weed control at 500 µg/mL [2]: 26.3 ± 2.6%
- pest or weed control at 500 µg/mL [3, 4]: 57.4 ± 4.3%

SMILES: COc1cccc(/C=C2\Oc3cc(OCC(=O)NS(=O)(=O)c4ccc(F)cc4)ccc3C2=O)c1 [D11]
- pest or weed control at 500 µg/mL [1]: 40.6 ± 2%
- pest or weed control at 500 µg/mL [2]: 42.7 ± 2.8%
- pest or weed control at 500 µg/mL [3, 4]: 52.9 ± 2.8%

SMILES: CNCC(=O)N[C@@H](CO)C(=O)N[C@H]1[C@H](O)[C@@H](O)[C@H](n2ccc(N)nc2=O)O[C@@H]1C(N)=O [NNM, ningnanmycin, reference compound]
- pest or weed control at 500 µg/mL [1]: 49 ± 3.9%
- pest or weed control at 500 µg/mL [2]: 49.1 ± 1.8%
- pest or weed control at 500 µg/mL ([3]; read-out: Inactivating effect (%)): 83.3 ± 1.2%
- EC50 [3]: 54.3 ± 2.2 µg/mL (≈ 122 µM)

SMILES: COc1cccc(/C=C2\Oc3cc(OCC(=O)NS(=O)(=O)c4ccccc4)ccc3C2=O)c1 [D6]
- pest or weed control at 500 µg/mL [1]: 36.5 ± 2.9%
- pest or weed control at 500 µg/mL [2]: 40.5 ± 0.8%
- pest or weed control at 500 µg/mL [3, 4]: 58.8 ± 4.5%

SMILES: COc1cccc(/C=C2\Oc3cc(OCC(=O)NS(=O)(=O)c4ccc(Cl)cc4)ccc3C2=O)c1 [D5]
- pest or weed control at 500 µg/mL [1]: 41.7 ± 3.5%
- pest or weed control at 500 µg/mL [2]: 37.6 ± 4.8%
- pest or weed control at 500 µg/mL [3, 4]: 60 to 80%

SMILES: COc1ccc(OC)c(/C=C2\Oc3cc(OCC(=O)NS(=O)(=O)c4ccccc4)ccc3C2=O)c1 [D30]
- pest or weed control at 500 µg/mL [1]: 33.3 ± 1.4%
- pest or weed control at 500 µg/mL [2]: 34.2 ± 3.3%
- pest or weed control at 500 µg/mL [3, 4]: 49.4 ± 3.4%

SMILES: COc1ccc(OC)c(/C=C2\Oc3cc(OCC(=O)NS(=O)(=O)c4ccc(Cl)cc4)ccc3C2=O)c1 [D33]
- pest or weed control at 500 µg/mL [1]: 41.2 ± 2.4%
- pest or weed control at 500 µg/mL [2]: 39.7 ± 2.7%
- pest or weed control at 500 µg/mL [3, 4]: 51.1 ± 3.9%

SMILES: COc1ccccc1/C=C1\Oc2cc(OCC(=O)NS(=O)(=O)c3ccc(F)cc3)ccc2C1=O [D12]
- pest or weed control at 500 µg/mL [1]: 34.1 ± 3.5%
- pest or weed control at 500 µg/mL [2]: 44.5 ± 1.5%
- pest or weed control at 500 µg/mL [3, 4]: 59.4 ± 3.6%

SMILES: COc1ccc(/C=C2\Oc3cc(OCC(=O)NS(=O)(=O)c4ccc(Cl)cc4)ccc3C2=O)cc1OC [D18]
- pest or weed control at 500 µg/mL [1]: 25.5 ± 4%
- pest or weed control at 500 µg/mL [2]: 38.2 ± 3%
- pest or weed control at 500 µg/mL [3, 4]: 56.8 ± 2.8%

- EC50 [3]: 307 ± 13.7 µg/mL (≈ 614 µM)
SMILES: COc1ccc(/C=C2\Oc3cc(OCC(=O)NS(=O)(=O)c4ccc(Cl)cc4)ccc3C2=O)cc1 [D1]
- pest or weed control at 500 µg/mL [1]: 38.7 ± 3.7%
- pest or weed control at 500 µg/mL [2]: 44.8 ± 3.8%
- pest or weed control at 500 µg/mL [3, 4]: 50 ± 3.5%

SMILES: COc1cccc(/C=C2\Oc3cc(OCC(=O)NS(=O)(=O)c4ccc(Br)cc4)ccc3C2=O)c1OC [D25]
- pest or weed control at 500 µg/mL [1]: 35.9 ± 3.9%
- pest or weed control at 500 µg/mL [2]: 41.9 ± 2.6%
- pest or weed control at 500 µg/mL [3, 4]: 55.4 ± 2%

SMILES: COc1ccc(OC)c(/C=C2\Oc3cc(OCC(=O)NS(=O)(=O)c4ccc(F)cc4)ccc3C2=O)c1 [D34]
- pest or weed control at 500 µg/mL [1]: 39.9 ± 3.7%
- pest or weed control at 500 µg/mL [2]: 36 ± 1.6%
- pest or weed control at 500 µg/mL [3, 4]: 46.9 ± 2.4%

SMILES: COc1cccc(/C=C2\Oc3cc(OCC(=O)NS(=O)(=O)c4ccc(Br)cc4)ccc3C2=O)c1 [D16]
- pest or weed control at 500 µg/mL [1]: 29 ± 1.6%
- pest or weed control at 500 µg/mL [2]: 36.9 ± 2.4%
- pest or weed control at 500 µg/mL [3, 4]: 42.9 ± 4.3%

SMILES: COc1ccc(/C=C2\Oc3cc(OCC(=O)NS(=O)(=O)c4ccc(F)cc4)ccc3C2=O)cc1OC [D26]
- pest or weed control at 500 µg/mL [1]: 32.4 ± 1.7%
- pest or weed control at 500 µg/mL [2]: 40.2 ± 5%
- pest or weed control at 500 µg/mL [3, 4]: 55.3 ± 3%

SMILES: COc1ccccc1/C=C1\Oc2cc(OCC(=O)NS(=O)(=O)c3ccccc3)ccc2C1=O [D4]
- pest or weed control at 500 µg/mL [1]: 43.1 ± 2.9%
- pest or weed control at 500 µg/mL [2]: 33.8 ± 1%
- pest or weed control at 500 µg/mL [3, 4]: 60 to 80%

SMILES: COc1ccccc1/C=C1\Oc2cc(OCC(=O)NS(=O)(=O)c3ccc(Br)cc3)ccc2C1=O [D15]
- pest or weed control at 500 µg/mL [1]: 37.1 ± 0.9%
- pest or weed control at 500 µg/mL [2]: 39.3 ± 2.9%
- pest or weed control at 500 µg/mL [3, 4]: 53.4 ± 4.2%

SMILES: COc1ccc(/C=C2\Oc3cc(OCC(=O)NS(=O)(=O)c4cccc(C(F)(F)F)c4)ccc3C2=O)c(OC)c1 [D37]
- pest or weed control at 500 µg/mL [1]: 38.2 ± 2.2%
- pest or weed control at 500 µg/mL [2]: 29.8 ± 2.7%
- pest or weed control at 500 µg/mL [3, 4]: 43.8 ± 3.2%

SMILES: COc1cc(/C=C2\Oc3cc(OCC(=O)NS(=O)(=O)c4ccc(Br)cc4)ccc3C2=O)cc(OC)c1 [D21]
- pest or weed control at 500 µg/mL [1]: 33 ± 3.9%
- pest or weed control at 500 µg/mL [2]: 22.7 ± 1.2%
- pest or weed control at 500 µg/mL [3, 4]: 50.5 ± 1.6%

SMILES: COc1ccc(/C=C2\Oc3cc(OCC(=O)NS(=O)(=O)c4ccc(Br)cc4)ccc3C2=O)cc1OC [D22]
- pest or weed control at 500 µg/mL [1]: 36.2 ± 1.5%
- pest or weed control at 500 µg/mL [2]: 28.1 ± 2.3%
- pest or weed control at 500 µg/mL [3, 4]: 52 ± 3%
